The EC50 is the concentration needed to bring the measured effect to its halfway point. A word on the Cmax: it is the maximum level reached in the sampled fluid or tissue. By Tmax is commonly meant the time from dosing to the highest level. Broadly, the half-life is the time needed for the level to fall by half in the phase considered. A higher half-life goes with slow decline. What is called Hill slope is a measure of the steepness of the concentration-response curve. One may read the solubility as the concentration that dissolves in the medium under given conditions. A high value points to much dissolved substance.

Where “and” joins values, the source holds several entries; their conditions need not be identical. Identical values can stand only once. Like-named read-outs stand apart in the source and are kept apart here.

A short description of data set [1]: Mouse brain penetration (brain:blood ratio). The settings on record: in vivo, dosed intravenously at 0.5 or 1 mg/kg, levels measured after 5 min, female NMRI mice, read-out: B:B (brain to blood ratio). The protocol: Each compound was dosed as a bolus solution intravenously at 0.5 or 1 mg free base/kg (dose volume, 5 mL/kg; dose vehicle, 10% DMSO; 40% PEG400; 50% Milli-Q water) to female NMRI mice (n = 6). At 5 and 30 min following intravenous bolus injection of test compound, mice (n = 3/time point) were placed under terminal anesthesia with isofluorane. A blood sample was taken by cardiac puncture and mixed with two volumes of distilled water, the mice decapitated, and the brain removed. Diluted blood and brains were stored frozen until preparation and analysis by UPLC/MS/MS. For each mouse at each time point, the concentration in brain (ng/g) was divided by the concentration in blood (ng/mL) to give a brain:blood ratio. The mean value obtained was quoted.

A short description of data set [2]: Microsomal intrinsic clearance (Clint), mouse. The following applies: mouse liver microsomes, 0.5 μM compound. The data set is classed as in vitro ADME. The protocol: (§1) Each test compound (0.5 μM) was incubated with pooled female CDI mouse liver microsomes, pooled male Sprague–Dawley rat microsomes, or pooled mixed gender human liver microsomes (Tebu-Bio, UK; 0.5 mg/mL 50 mM potassium phosphate buffer, pH 7.4) and the reaction started with addition of excess NADPH (8 mg/mL, 50 mM potassium phosphate buffer, pH 7.4). Immediately, at time zero, then at 3, 6, 9, 15, and 30 min, an aliquot (50 μL) of the incubation mixture was removed and mixed with acetonitrile (100 μL) to stop the reaction. Internal standard was added to all samples, and the samples were centrifuged at 1825g for 10 min to sediment precipitated protein. The plates were then sealed prior to UPLC/MS/MS analysis using a Quattro Premier XE (Waters Corporation, USA).
(§2) XLfit (IDBS, UK) was used to calculate the exponential decay and consequently the rate constant (k) from the ratio of peak area of test compound to internal standard at each time point.

For data set [3], the system named is panel of receptors, including dopamine, serotonin, histamine, and muscarinic receptors. Put plainly: NIMH Psychoactive Drug Screening Program (PDSP) receptor panel. The data set is classed as binding. The following applies: significant inhibition is considered > 50%. The text has this:
However, the observed toxicity prevents further progression of the compounds. To try and identify a possible driver for toxicity, that may then offer an opportunity to design out this unwanted effect, the key compounds were screened against a panel of receptors at the NIMH Psychoactive Drug Screening Program (PDSP).[36],[37] No significant activity against a large panel of receptors, including dopamine, serotonin, histamine, and muscarinic receptors (see Supporting Information) was observed.
S2: Details of receptors screened at the NIMH Psychoactive Drug Screening Program […]
receptors screened. Significant inhibition is considered > 50%. In cases where negative inhibition (-) is seen, this represents a stimulation of binding. The receptors screened were 5- […]
HT7, Alpha1A, Alpha1B, Alpha1D, Alpha2A, Alpha2B, Alpha2C, Beta1, Beta2, Beta3, BZP rat Brain site, D1, D2, D3, D4, D5, DAT, DOR, GABBA, H1, H2, H3, KOR, M1, M2, M3, M4, M5, MOR, NET, PBR, SERT, Sigma1 and Sigma2

Data set [4] concerns bloodstream form T. brucei brucei. Put plainly: T. b. brucei whole cell parasite (trypanosome growth) assay. In kind it is cell-based, Trypanosoma brucei brucei. The settings on record: for EC50: Trypanosoma brucei, mean of two or more determinations, 69 h + 4 h resazurin, read-out: T. b. brucei EC50. The protocol:
This was conducted as previously described.[27] Cell culture plates were stamped with 1 μL of an appropriate stock concentration of test compound, followed by addition of 200 μL of trypanosome culture (HMI9-T, 10% FCS) to each well at a density of 2000 cells per well (except column 12 receiving media only). […] Potency was carried out using 10-point dose–response curves.
(In general: Resazurin is reduced to fluorescent resorufin, in cell work by metabolically active cells.)

A short description of data set [5]: In vivo mouse pharmacokinetics. The following applies: for Cmax / Tmax / half-life / AUC(0-t) at 8 h / AUC(0-t): female, mouse, in vivo, 10 mg/kg, NMRI mice; for AUC(0-t) at 8 h: read-out: AUC0–8; for AUC(0-t): read-out: AUC0–8 (converted). The protocol:
Each compound was dosed as a bolus solution intraperitoneally at 10 mg free base/kg (dose volume, 10 mL/kg; dose vehicles used, 10% DMSO; 40% PEG400; 50% Milli-Q water or 5% DMSO; 40% PEG400; 55% saline) to female HRN (1 only) or NMRI mice (n = 3) or dosed orally by gavage as a solution at 10 mg free base/kg (dose volume, 10 mL/kg; dose vehicle, 10% DMSO; 40% PEG400; 50% Milli-Q water) to female NMRI mice (n = 3). Female NMRI mice were chosen, as these represent the sex and strain used for the stage 1 and stage 2 HAT efficacy models. Blood samples were taken from each mouse at 5 (IP only), 15, and 30 min, 1, 2, 4, 6, and 8 h post dose, mixed with two volumes of distilled water, and stored frozen until UPLC/MS/MS analysis. Pharmacokinetic parameters were derived from noncompartmental analysis of the blood concentration time curve using PK solutions software v 2.0 (Summit Research Services, USA).

Data set [6] in a line: Plasma protein binding by equilibrium dialysis, mouse. The settings on record: read-out: plasma protein binding, Fu (fraction unbound). The data set is classed as in vitro ADME. The protocol:
(§3) The software package StarDrop by Optibrium was used to calculate physicochemical parameters including log P, molecular weight, and polar surface area (PSA). The aqueous kinetic solubility of the compounds was measured using laser nephelometry as previously described.[40] The plasma protein binding of the compounds was determined by the equilibrium dialysis method.[12]
Background: In equilibrium dialysis only unbound substance equilibrates across the membrane.

Another data set in a line: in vitro. The following applies: human, MRC-5 fibroblasts.
The nature of data set [7]: Microsomal intrinsic clearance (Clint), rat. The data set is classed as in vitro ADME. The settings on record: rat liver microsomes, 0.5 μM compound. The protocol:
as §1, §2
In general terms: Liver microsomes are vesicles of endoplasmic reticulum, rich in cytochrome P450 enzymes.

A short description of data set [8]: Aqueous kinetic solubility by laser nephelometry. The settings on record: aqueous medium, Table 7. In kind it is physicochemical. On the procedure:
as §3

Data set [9] is described as follows: Brain tissue binding by equilibrium dialysis. The data set is classed as in vitro ADME. The settings on record: Sprague-Dawley, brain homogenate; rat (male SD rat); read-out: brain tissue binding (rat), Fu. On the procedure:
In brief, a 96-well equilibrium dialysis apparatus was used to determine the free fraction in the brain for the test compound (HT Dialysis LLC, Gales Ferry, CT). Membranes (12–14 kDa A cutoff) were conditioned in deionized water for 60 min, followed by conditioning in 80:20 deionized water:ethanol for 20 min and then rinsed in artificial cerebrospinal fluid (CSF) before use. Mouse brain was removed from the freezer and allowed to thaw on the day of experiment. […] Diluted brain homogenate was spiked with the test compound (10 ug/g), and 150 μL aliquots (n = 6 replicate determinations) loaded into the 96-well equilibrium dialysis plate. Dialysis vs artificial CSF (150 μL) was carried out for 5 h in a temperature controlled incubator at ca. 37 °C (Stuart scientific Ltd., UK) using an orbital microplate shaker at 125 rpm (Stuart scientific Ltd., UK). […] All samples were analyzed by means of UPLC/MS/MS on a Quattro Premier XE mass spectrometer (Waters Corporation, USA). The unbound fraction was determined as the ratio of the peak area in artificial CSF to that in brain, with correction for dilution factor according to eq 1.[42] […] 1 where D = dilution factor in brain homogenate and Fu,apparent is the measured free fraction of diluted brain homogenate.

Data set [10] is described as follows: Microsomal intrinsic clearance (Clint), human. In kind it is in vitro ADME. The following applies: human liver microsomes, 0.5 μM compound. On the procedure: as §1, §2

Description for in vitro: Proliferation assays using bloodstream form T. brucei brucei and human MRC-5 fibroblasts were conducted using a modification of the cell viability assay as previously reported.[27],[39]
MRC-5 cells (2000 cells per well) were seeded in 200 μL of DMEM, 10% FCS, and allowed to adhere overnight. One microliter of test compound was added to each well on the day of assay initiation.
The final DMSO level was 0.5% in all cases.

As for `CNC(=O)C1Cc2ccccc2N1C(=O)COc1ccc(F)cc1` (centres unmarked) [Compound 35, 1-(2-(4-fluorophenoxy)acetyl)-N-methylindoline-2-carboxamide], the Kp at 5 min in data set [1] was found to be 1.5. Also, in data set [2], the “mouse microsomal intrinsic clearance” value was 1.2 mL min^–1 g^–1 and 1.2/ND mL min^–1 g^–1. In addition, the “inhibition against receptors screened” value in [3] was “did not show significant inhibitor”. Further, in data set [4], the EC50 was 20 nM. Further, in [5] (IP), the Cmax is 910 ng/mL and 2.8 µM; the Tmax came out at 15 min; the half-life was 66 min; the AUC(0-t) at 8 h was 5.6 µM·h. The AUC(0-t) in data set [5] (IP) is 1830 ng·h/mL. Moreover, in data set [5] (PO), the Cmax is 180 ng/mL and 550 nM; the Tmax is 15 min; the half-life was 42 min; the AUC(0-t) at 8 h turned out to be 0.8 µM·h. Besides, the AUC(0-t) in [5] (PO) was 250 ng·h/mL. The fraction unbound in data set [6] came out at 0.42. For the same compound, in “in vitro”, the EC50 at 69 h was over 50000 nM.

In the case of `CNC(=O)C1Cc2cc(F)ccc2N1C(=O)COc1ccc(F)cc1` (centres unmarked) [Compound 55, 5-fluoro-1-(2-(4-fluorophenoxy)acetyl)-N-methylindoline-2-carboxamide], the Kp at 5 min in [1] was 1.4. For the same compound, the “mouse microsomal intrinsic clearance” value in data set [2] is 1.3 mL min^–1 g^–1. For the same compound, in data set [7], the “microsomal intrinsic clearance, rat” value is listed as 2.1 mL min^–1 g^–1. For the same compound, in data set [4] (T. brucei EC50 curve), the Hill slope worked out at 4.4. For the same compound, the EC50 in data set [4] was determined as 80 nM. The same compound displayed a solubility in data set [8] of over 100 µg/mL. In data set [5] (IP, female NMRI mice), the “higher AUC compared to 1” value is on record as 1.5–6.5 fold. Further, in data set [5] (IP), the Cmax is 2900 ng/mL and 8.4 µM; the Tmax amounted to 60 min; the half-life was 72 min; the AUC(0-t) at 8 h was 34 µM·h. Besides, in [5] (IP), the AUC(0-t) was 11800 ng·h/mL. For the same compound, in data set [5] (PO), the Cmax was 1500 ng/mL and 4.3 µM; the Tmax is 30 min; the half-life is 120 min; the AUC(0-t) at 8 h stood at 10 µM·h. Besides, the AUC(0-t) in data set [5] (PO) was 3500 ng·h/mL. Further, the fraction unbound in data set [6] came out at 0.33. Also, in the data set “in vitro”, the EC50 at 69 h was over 50000 nM. The fraction unbound at 5 h, 10 ug/g in data set [9] was determined as 0.29. Further, in data set [10], the “microsomal intrinsic clearance, human” value is 0.5 mL min^–1 g^–1 and < 0.5 mL min^–1 g^–1.

As for `CNC(=O)[C@H]1Cc2ccccc2N1C(=O)COc1ccc(F)cc1` [Compound 36], in data set [2], the “mouse microsomal intrinsic clearance” value is recorded as 1.2 mL min^–1 g^–1. For the same compound, the “microsomal intrinsic clearance, rat” value in [7] was 4.9 mL min^–1 g^–1. Besides, the 50% effective concentration (EC50) in data set [4] is 40 nM. The compound further showed an EC50 at 69 h in the data set “in vitro” of over 50000 nM. Moreover, the “microsomal intrinsic clearance, human” value in data set [10] amounted to 1.3 mL min^–1 g^–1.

As for `CNC(=O)C1Cc2ccccc2N1C(=O)COc1ccc(Cl)c(F)c1` (centres unmarked) [Compound 29], the “mouse microsomal intrinsic clearance” value in data set [2] amounted to 4.4 mL min^–1 g^–1. Also, the “microsomal intrinsic clearance, rat” value in [7] was 13.5 mL min^–1 g^–1. Moreover, the EC50 in [4] was 30 nM. For the same compound, the EC50 at 69 h in the data set “in vitro” was over 50000 nM. Moreover, the “microsomal intrinsic clearance, human” value in data set [10] was found to be 3.3 mL min^–1 g^–1.

The values are drawn from paper PMC4601051, “Discovery of Indoline-2-carboxamide Derivatives as a New Class of Brain-Penetrant Inhibitors of Trypanosoma brucei” (Journal of Medicinal Chemistry, 2015).
